Data taken from BigSolDB 2.1.

CC(=O)Oc1cc(C)c(OC(C)=O)c2ccccc12
solubility (mole fraction)
Conditions	283.1 K	288.1 K	293.1 K	298.1 K	303.1 K	308.1 K	313.1 K	318.1 K	323.1 K
in cyclohexanol	0.00261	0.00403	0.00595	0.0082	0.0105	0.0138	0.0182	0.0245	0.033
in ethanol	0.00323	0.00417	0.00532	0.00656	0.00839	0.0108	0.014	0.0184	0.0242
in ethyl acetate	0.0691	0.0795	0.0907	0.103	0.118	0.135	0.156	0.179	0.204
in isobutanol	0.00212	0.0029	0.00384	0.00526	0.00708	0.00958	0.0131	0.018	0.0249
in isopentanol	0.00241	0.00329	0.00422	0.0056	0.00766	0.0102	0.0137	0.0183	0.025
in isopropanol	0.00185	0.0025	0.00334	0.00444	0.00605	0.0081	0.011	0.0152	0.0209
in methanol	0.00461	0.0057	0.0071	0.00877	0.0112	0.0139	0.0173	0.0221	0.032
in methyl acetate	0.0839	0.096	0.109	0.123	0.14	0.159	0.178	0.198	0.22
in n-butanol	0.00257	0.00352	0.00459	0.00595	0.00794	0.0104	0.0139	0.0185	0.0253
in n-butyl acetate	0.0497	0.0573	0.0665	0.077	0.0897	0.105	0.122	0.142	0.165
in n-pentanol	0.00266	0.00374	0.00498	0.00667	0.0092	0.0122	0.0164	0.0219	0.0288
in n-pentyl acetate	0.0429	0.0501	0.0592	0.0681	0.0791	0.093	0.108	0.128	0.15
in n-propanol	0.00265	0.00345	0.00473	0.00629	0.00799	0.0106	0.014	0.0186	0.0252
in n-propyl acetate	0.0592	0.0673	0.0771	0.0895	0.104	0.12	0.138	0.159	0.183
